Measurements: US6133292A, “Diaryl-5-alkyl-5-methyl-2-(5H)-furanones as selective cyclooxygenase-2-inhibitors” (Merck Frosst Canada & Co., priority 1998, dated 2000)

Columns and labels:
COX-2 = target: T1, COX-2 (Homo sapiens, UniProt P35354); assay: Human whole blood assay, COX-2 (LPS-induced PGE2 production); format: cell-based; parameters: incubation of human whole blood with LPS, which induces COX-2; from tissue; host or cells: fresh heparinized human whole blood from male and female volunteers, LPS-stimulated; conditions: 24 hours at 37° C, read-out: HWB Cox-2 (IC50, inhibition of PGE2 production)
T1 sequence (P35354 18-604): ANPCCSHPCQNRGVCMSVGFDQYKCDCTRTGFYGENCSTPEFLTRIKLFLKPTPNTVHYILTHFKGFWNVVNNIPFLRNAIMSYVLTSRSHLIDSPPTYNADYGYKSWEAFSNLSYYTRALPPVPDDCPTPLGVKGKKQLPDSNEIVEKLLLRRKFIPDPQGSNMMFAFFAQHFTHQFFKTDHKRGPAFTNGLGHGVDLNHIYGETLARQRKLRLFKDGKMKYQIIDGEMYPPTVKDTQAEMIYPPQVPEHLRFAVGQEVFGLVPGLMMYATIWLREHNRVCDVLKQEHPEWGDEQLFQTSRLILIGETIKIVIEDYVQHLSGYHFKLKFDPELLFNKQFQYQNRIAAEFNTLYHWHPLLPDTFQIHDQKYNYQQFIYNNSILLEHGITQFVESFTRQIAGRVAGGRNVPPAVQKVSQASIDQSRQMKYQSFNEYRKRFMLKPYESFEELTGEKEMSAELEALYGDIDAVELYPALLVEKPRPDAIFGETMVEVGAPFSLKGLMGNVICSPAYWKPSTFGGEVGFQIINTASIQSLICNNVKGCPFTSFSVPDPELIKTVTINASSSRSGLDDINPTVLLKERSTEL
Method: (§1) Human whole blood provides a protein and cell-rich milieu appropriate for the study of biochemical efficacy of anti-inflammatory compounds such as selective COX-2 inhibitors. […] This is consistent with the observation that COX-2 inhibitors have no effect on PGE2 production in normal blood. These inhibitors are active only after incubation of human whole blood with LPS, which induces COX-2. This assay can be used to evaluate the inhibitory effect of selective COX-2 inhibitors on PGE2 production. As well, platelets in whole blood contain a large amount of the COX-1 enzyme. Immediately following blood clotting, platelets are activated through a thrombin-mediated mechanism. This reaction results in the production of thromboxane B2 (TXB2) via activation of COX-1. Thus, the effect of test compounds on TxB2 levels following blood clotting can be examined and used as an index for COX-1 activity. Therefore, the degree of selectivity by the test compound can be determined by measuring the levels of PGE2 after LPS induction (COX-2) and TxB2 following blood clotting (COX-1) in the same assay.
A. COX-2 (LPS-induced PGE9 production)
Fresh blood is collected in heparinized tubes by venipuncture from both male and female volunteers. The subjects have no apparent inflammatory conditions and have not taken any NSAIDs for at least 7 days prior to blood collection. Plasma is immediately obtained from a 2 mL blood aliquot to use as blank (basal levels of PGE2). The remaining blood is incubated with LPS (100 μg/ml final concentration, Sigma Chem, #L-2630 from E. coli; diluted in 0.1% BSA (Phosphate buffered saline) for 5 minutes at room temperature. Five hundred μL aliquots of blood are incubated with either 2 μL of vehicle (DMSO) or 2 μL of a test compound at final concentrations varying from 10 nM to 30 μM for 24 hours at 37° C. At the end of the incubation, the blood is centrifuged at 12,000 x g for 5 minutes to obtain plasma. A 100 μL aliquot of plasma is mixed with 400 μL of methanol for protein precipitation. The supernatant is obtained and is assayed for PGE2 using a radioimmunoassay kit (Amersham, RPA#530) after conversion of PGE2 to its methyl oximate derivative according to the manufacturer's procedure.
Compounds of the present invention are inhibitors of COX-2 and are thereby useful in the treatment of COX-2 mediated diseases as enumerated above. The activities of the compounds against cyclooxygenase may be seen in the representative results shown below. In the assay, inhibition is determined by measuring the amount of prostaglandin E2 (PGE2) synthesized in the presence of arachidonic acid, COX-1 or COX-2 and a putative inhibitor. The IC50 values represent the concentration of putative inhibitor required to lower PGE2 synthesis to 50% of that obtained as compared to the uninhibited control.

COX-1 = COX-1 (Homo sapiens, UniProt P23219); assay: Human whole blood assay, COX-1 (clotting-induced TxB2 production); format: cell-based; parameters: platelets in whole blood contain a large amount of the COX-1 enzyme; from tissue; host or cells: fresh human whole blood without anticoagulant, platelets; conditions: clotting-induced TxB2, 1 hour at 37° C, read-out: HWB Cox-1 (IC50)
Method: as §1
B. COX-1 (Clotting-induced TxB2 production)
Fresh blood is collected into vacutainers containing no anticoagulants. […] The tubes are vortexed and incubated at 37° C. for 1 hour to allow blood to clot. At the end of incubation, serum is obtained by centrifugation (12,000 x g for 5 min.). A 100 μL aliquot of serum is mixed with 400 μL of methanol for protein precipitation. The supernatant is obtained and is assayed for TxB2 using a enzyme immunoassay kit (Cayman, #519031) according to the manufacturer's instruction. […]

COX-1, sequence (P23219 24-599): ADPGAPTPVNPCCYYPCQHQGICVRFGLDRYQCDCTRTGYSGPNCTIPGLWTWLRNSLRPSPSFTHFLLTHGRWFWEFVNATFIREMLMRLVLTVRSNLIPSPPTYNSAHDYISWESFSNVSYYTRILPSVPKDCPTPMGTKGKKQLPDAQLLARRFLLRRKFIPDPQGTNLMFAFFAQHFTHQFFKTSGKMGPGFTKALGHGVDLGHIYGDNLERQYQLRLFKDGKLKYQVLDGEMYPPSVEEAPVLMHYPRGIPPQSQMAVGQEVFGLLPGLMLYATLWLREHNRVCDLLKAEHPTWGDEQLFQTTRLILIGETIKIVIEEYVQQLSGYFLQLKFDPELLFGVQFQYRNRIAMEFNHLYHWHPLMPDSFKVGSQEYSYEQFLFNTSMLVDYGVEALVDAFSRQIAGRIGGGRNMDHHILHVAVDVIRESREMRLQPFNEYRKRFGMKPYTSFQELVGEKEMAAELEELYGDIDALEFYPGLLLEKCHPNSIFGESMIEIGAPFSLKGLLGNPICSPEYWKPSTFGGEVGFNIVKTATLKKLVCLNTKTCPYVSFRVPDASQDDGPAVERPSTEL

| Structure (SMILES) | IC50 (COX-2) | IC50 (COX-1) |
| --- | --- | --- |
| CC1(C)OC(=O)C(c2ccc(F)cc2)=C1c1ccc(S(C)(=O)=O)cc1 [Compound T3-1, 3-(4-fluorophenyl)-5,5-dimethyl-4-[4-(methylsulfonyl)phenyl]-2,5-dihydro-2-furanone, reference compound] | < 0.37 µM | 86.1 µM |
| CCC1(C)OC(=O)C(c2ccc(F)cc2)=C1c1ccc(S(C)(=O)=O)cc1 (stereo not drawn) [c, 5-ethyl-3-(4-fluorophenyl)-5-methyl-4-[4-(methylsulfonyl)phenyl]-2,5-dihydro-2-furanone] | 0.59 µM | > 30 µM |
| CC[C@]1(C)OC(=O)C(c2ccc(F)cc2)=C1c1ccc(S(C)(=O)=O)cc1 [d, (5S)-5-ethyl-3-(4-fluorophenyl)-5-methyl-4-[4-(methylsulfonyl)phenyl]-2,5-dihydro-2-furanone] | 0.31 µM | 8.3 µM |
| CC[C@@]1(C)OC(=O)C(c2ccc(F)cc2)=C1c1ccc(S(C)(=O)=O)cc1 [e, (5R)-5-ethyl-3-(4-fluorophenyl)-5-methyl-4-[4-(methylsulfonyl)phenyl]-2,5-dihydro-2-furanone] | 0.13 µM | 46 µM |
| CC[C@@]1(C)OC(=O)C(c2ccc(F)c(F)c2)=C1c1ccc(S(C)(=O)=O)cc1 [h, (5R)-3-(3,4-difluorophenyl)-5-ethyl-5-methyl-4-[4-(methylsulfonyl)phenyl] -2,5-dihydro-2-furanone] | 1.55 µM | 76 µM |
| CC[C@]1(C)OC(=O)C(c2ccc(F)c(F)c2)=C1c1ccc(S(C)(=O)=O)cc1 [i, (5S)-3-(3,4-difluorophenyl)-5-ethyl-5-methyl-4-[4-(methylsulfonyl)phenyl] -2,5-dihydro-2-furanone] | 0.53 µM | 46.4 µM |
| CCCC1(C)OC(=O)C(c2ccc(F)cc2)=C1c1ccc(S(C)(=O)=O)cc1 (stereo not drawn) [n, 3-(4-fluorophenyl)-5-methyl-4-[4-(methylsulfonyl)phenyl]-5-propyl-2,5-dihydro-2-furanone] | 2.51 µM | > 90 µM |
| CCCC1(C)OC(=O)C(c2cccc(F)c2)=C1c1ccc(S(C)(=O)=O)cc1 (stereo not drawn) [o, 3-(3-fluorophenyl)-5-methyl-4-[4-(methylsulfonyl)phenyl]-5-propyl-2,5-dihydro-2-furanone] | 3.55 µM |  |
| CCCC1(C)OC(=O)C(c2ccc(F)c(F)c2)=C1c1ccc(S(C)(=O)=O)cc1 (stereo not drawn) [p, 3-(3,4-difluorophenyl)-5-methyl-4-[4-(methylsulfonyl)phenyl]-5-propyl-2,5-dihydro-2-furanone] | 2.44 µM |  |
| CCC1(CC)OC(=O)C(c2ccccc2)=C1c1ccc(S(C)(=O)=O)cc1 [t, 5,5-diethyl-4-[4-(methylsulfonyl)phenyl]-3-phenyl-2,5-dihydro-2-furanone, reference compound] | 12.2 µM |  |
| CCC1(CC)OC(=O)C(c2ccc(F)cc2)=C1c1ccc(S(C)(=O)=O)cc1 [u, 5,5-diethyl-3-(4-fluorophenyl)-4-[4-(methylsulfonyl)phenyl]-2,5-dihydro-2-furanone, reference compound] | 13.9 µM |  |
